Molecules are shown by their SMILES. Converted amounts (≈) assume the structure as drawn.

The text below walks through data of patent US20250129103A1, “METHODS FOR TREATMENT OF CANCER” (Frontier Medicines Corporation, priority 2022, published 2025).

Data set [1] has as its target KRAS G12C (GMPPNP-loaded) and cRAF (Ras-binding domain) interaction (Homo sapiens (Human), UniProt P01116, C118S/C51S/C80L/G12C). Description: Inhibition of KRAS G12C and cRAF binding (AlphaScreen). To be noted: KRAS G12C loaded with GMPPNP, cRaf RBD, 2 hours preincubation; read-out: Raf-1 RBD K-Ras IC50. In a few lines: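 AlphaScreen readout (680 nm excitation, 570 nm emission) of RBD binding after a 60-90 min bead step at room temperature. This step follows 2 h compound exposure of GMPPNP-preloaded KRAS G12C in Hepes pH 7.4 buffer with MgCl2 and 10 μM GMPPNP.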

The target of data set [2] is KRAS G12C (GMPPNP-loaded) and PI3Ka (Ras-binding domain) interaction (Homo sapiens (Human), UniProt P01116, C118S/C51S/C80L/G12C). Description: Inhibition of KRAS G12C and PI3Ka binding (AlphaScreen). To be noted: KRAS G12C loaded with GMPPNP, PI3Ka RBD, 2 hours preincubation; read-out: PI3K RBD K-Ras IC50. As for the experimental part:
The AlphaScreen technology was used to determine IC50S for compound inhibition of KRAS G12C (present as the Cys-light (C51S, C80L and C118S), truncated version comprising amino acids 1-169) and PI3Ka interaction. Compounds were diluted in 100% DMSO and each compound concentration was spotted at 200 nl/well onto low volume, white 384 well plates. The KRAS G12C contained a biotin-AviTag and the PI3Ka, as Ras-binding domain (amino acids 157-300, RBD), was His-tagged. KRAS G12C was preloaded with the GTP analogue Guanosine 5′-[β,γ-imido]triphosphate (GMPPNP). The KRAS G12C was diluted in 25 mM Hepes, pH 7.4, 150 mM NaCl, 5 mM MgCl2, 0.01% TritonX-100 and 10 μM GMPPNP and added at 10 ul/well to compound-spotted plates resulting in a DMSO concentration of 2%. Plates were incubated for 2 hours. A mixture of RBD and the AlphaScreen streptavidin donor and nickel chelate acceptor beads diluted in 25 mM Hepes, pH 7.4, 150 mM NaCl, 5 mM MgCl2, 0.01% TritonX-100 and 2% DMSO was then added at 10 ul/well and incubated for 60-90 minutes before the samples were read for emission at 570 nm after excitation of the donor beads at 680 nm. All incubations were performed at room temperature. The final top compound concentration was 50 μM with 1:3 titrations for 10-point dose response curves. Final assay conditions were 1.5 nM KRAS G12C, 100 nM RBD, 1.25 ug/ml of AlphaScreen donor beads and 10 μg/ml AlphaLISA acceptor beads. IC50s were determined using nonlinear regression fit of [inhibitor] vs. response (4 parameters). […]

Data set [3] is described as follows: Determination of logD (1-octanol / phosphate buffer pH 7.4). The format is physicochemical. As to conditions: 1-octanol/phosphate buffer, pH 7.4, pH 7.4, 1-octanol/phosphate buffer; read-out: Log D, pH 7.4. In a few lines:
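Each phase analysed by LCMS after 1 h shaking at 800 rpm and centrifugation, room temperature. Phases were mutually saturated 1-octanol and 100 mM phosphate buffer at pH 7.4. LogD derived from the phase concentrations.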

Data set [4] is described as follows: Determination of kinetic solubility (pH 7.4). The format is physicochemical. As to conditions: phosphate buffer, pH 7.4, aqueous buffer, kinetic from dmso stock, 50 mM phosphate buffer pH 7.4, read-out: Ksol, pH 7.4. In a few lines:
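Solubility taken from filtrate peak areas on a calibration curve (HPLC-UV, LC-MS/MS). Before filtration and centrifugation, compound was shaken for 2 h at room temperature in pH 7.4 50 mM phosphate buffer.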

Sequence of KRAS G12C (GMPPNP-loaded) and PI3Ka (Ras-binding domain) interaction (P01116 other isoform, or with tags, fused parts or gaps G12C/C51S/C80L/C118S): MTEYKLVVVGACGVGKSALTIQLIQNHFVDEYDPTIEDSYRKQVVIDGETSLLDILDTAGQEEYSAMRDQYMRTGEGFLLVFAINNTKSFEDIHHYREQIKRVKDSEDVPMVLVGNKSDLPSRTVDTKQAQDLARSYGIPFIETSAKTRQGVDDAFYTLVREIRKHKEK
Sequence of KRAS G12C (GMPPNP-loaded) and cRAF (Ras-binding domain) interaction (P01116 other isoform, or with tags, fused parts or gaps G12C/C51S/C80L/C118S): as above

Turning to `Cc1cc(N)nc(C2Cc3nc(OC[C@@]45CCCN4C[C@H](F)C5)nc(N4CCN(C(=O)/C=C/c5nc(C(C)C)no5)[C@@H](CC#N)C4)c3CC2C)c1C(F)(F)F` (mixture of isomers) [Example 66, 2-((2S)-4-(7-(6-amino-4-methyl-3-(trifluoromethyl)pyridin-2-yl)-2-(((2R,7aS)-2-fluorotetrahydro-1H-pyrrolizin-7a(5H)-yl)methoxy)-6-methyl-5,6,7,8-tetrahydroquinazolin-4-yl)-1-((E)-3-(3-isopropyl-1,2,4-oxadiazol-5-yl)acryloyl)piperazin-2-yl)acetonitrile], the IC50 in data set [1] and in data set [2] was 0.01 to 0.1 µM throughout.
For the compound `CN1CCC1/C=C/C(=O)N1CCN(c2nc(OC[C@@]34CCCN3C[C@H](F)C4)nc3c(F)c(-c4cccc5cccc(Cl)c45)ncc23)C[C@@H]1CC#N` (stereo partly shown) [Compound 51], the IC50 in data set [1] and in data set [2] was 0.01 to 0.1 µM in each case.
As for `N#CC[C@H]1CN(c2nc(OC[C@@]34CCCN3C[C@H](F)C4)nc3c(F)c(-c4cccc5cccc(Cl)c45)ncc23)CCN1C(=O)/C=C/CN1CCSCC1` [Compound 97, 2-((S)-4-(7-(8-chloronaphthalen-1-yl)-8-fluoro-2-(((2R,7aS)-2-fluorohexahydro-1H-pyrrolizin-7a-yl)methoxy)pyrido[4,3-d]pyrimidin-4-yl)-1-((E)-4-thiomorpholinobut-2-enoyl)piperazin-2-yl)acetonitrile], the IC50 in data set [1] and in data set [2] was below 0.01 µM in each case.
`N#CC[C@H]1CN(c2nc(OC[C@@]34CCCN3C[C@H](F)C4)nc3c(F)c(-c4cccc(Cl)c4C4CC4)ncc23)CCN1C(=O)/C=C/CN1[C@@H]2CC[C@H]1COC2` [Compound 100, 2-((S)-1-((E)-4-((1R,5S)-3-oxa-8-azabicyclo[3.2.1]octan-8-yl)but-2-enoyl)-4-(7-(3-chloro-2-cyclopropylphenyl)-8-fluoro-2-(((2R,7aS)-2-fluorotetrahydro-1H-pyrrolizin-7a(5H)-yl)methoxy)pyrido[4,3-d]pyrimidin-4-yl)piperazin-2-yl)acetonitrile]: the IC50 in data set [1] and in data set [2] was below 0.01 µM throughout.
Turning to `Cc1nccc(/C=C/C(=O)N2CCN(c3nc(OC[C@@]45CCCN4C[C@H](F)C5)nc4c(F)c(-c5cccc(Cl)c5C5CC5)ncc34)C[C@@H]2CC#N)n1` [Compound 104, 2-((S)-4-(7-(3-chloro-2-cyclopropylphenyl)-8-fluoro-2-(((2R,7aS)-2-fluorotetrahydro-1H-pyrrolizin-7a(5H)-yl)methoxy)pyrido[4,3-d]pyrimidin-4-yl)-1-((E)-3-(2-methylpyrimidin-4-yl)acryloyl)piperazin-2-yl)acetonitrile], the 50% inhibitory concentration (IC50) in data set [1] and in data set [2] was below 0.01 µM in each case.
For the compound `CCc1nccc(/C=C/C(=O)N2CCN(c3nc(OC[C@@]45CCCN4C[C@H](F)C5)nc4c(F)c(-c5cccc6cccc(Cl)c56)ncc34)C[C@@H]2CC#N)n1` [Compound 150], the half-inhibitory concentration (IC50) in data set [1] and in data set [2] was below 0.01 µM each time.
Take `N#CC[C@H]1CN(c2nc(OCC34CCCN3CCC4)nc3c2CCN(c2cccc4cccc(Cl)c24)C3)CCN1C(=O)/C=C/CN1CCC(F)(F)CC1` [Compound 159]: the IC50 in data set [1] and in data set [2] was below 0.01 µM each time.
As to `CC1(C)CN(C/C=C/C(=O)N2CCN(c3nc(OCC45CCCN4CCC5)nc4c3CCN(c3cccc5cccc(Cl)c35)C4)C[C@@H]2CC#N)CCO1` [Compound 165], the half-inhibitory concentration (IC50) in data set [1] and in data set [2] was below 0.01 µM in each case.
`N#CC[C@H]1CN(c2nc(OCC34CCCN3CCC4)nc3c2CCN(c2cccc4cccc(Cl)c24)C3)CCN1C(=O)/C=C/CN1CCCCC1` [Compound 170]: the IC50 in data set [1] and in data set [2] was below 0.01 µM in each case.
As for `N#CC[C@H]1CN(c2nc(OC[C@@]34CCCN3C[C@H](F)C4)nc3c(F)c(-c4cccc5cccc(Cl)c45)ncc23)CCN1C(=O)/C=C/CN1C[C@@H]2C[C@H]1CO2` [Compound 180], the concentration for half-maximal inhibition (IC50) in data set [1] and in data set [2] was below 0.01 µM throughout.
`N#CC[C@H]1CN(c2nc(OC[C@@]34CCCN3C[C@H](F)C4)nc3c(F)c(-c4cccc5cccc(Cl)c45)ncc23)CCN1C(=O)/C=C/CN1C[C@H]2C[C@@H]1CO2` [Compound 181]: the IC50 in data set [1] and in data set [2] was below 0.01 µM in each case.
Regarding `Cc1nccc(/C=C/C(=O)N2CCN(c3nc(OC[C@@]45CCCN4C[C@H](F)C5)nc4c(F)c(-c5cccc6ccc(F)c(F)c56)ncc34)C[C@@H]2CC#N)n1` [Compound 211], the IC50 in data set [1] and in data set [2] was below 0.01 µM throughout.
On to `CO[C@@H]1CCN(C/C=C/C(=O)N2CCN(c3nc(OC[C@@]45CCCN4C[C@H](F)C5)nc4c(F)c(-c5cccc6ccc(F)c(F)c56)ncc34)C[C@@H]2CC#N)C1` [Compound 216], for which the 50% inhibitory concentration (IC50) in data set [1] and in data set [2] was below 0.01 µM each time.
As to `N#CC[C@H]1CN(c2nc(OC[C@@]34CCCN3C[C@H](F)C4)nc3c(F)c(-c4cccc5cccc(F)c45)ncc23)CCN1C(=O)/C=C/CN1C[C@@H]2C[C@H]1CO2` [Compound 219], the IC50 in data set [1] and in data set [2] was below 0.01 µM throughout.
For the compound `N#CC[C@H]1CN(c2nc(OC[C@@]34CCCN3C[C@H](F)C4)nc3c(F)c(-c4cccc5cccc(F)c45)ncc23)CCN1C(=O)/C=C/CN1C[C@H]2C[C@@H]1CO2` [Compound 220], the 50% inhibitory concentration (IC50) in data set [1] and in data set [2] was below 0.01 µM in each case.
Regarding `CCc1c(F)ccc2cccc(-c3ncc4c(N5CCN(C(=O)/C=C/c6ccnc(C)n6)[C@@H](CC#N)C5)nc(OC[C@@]56CCCN5C[C@H](F)C6)nc4c3F)c12` [Compound 227], the IC50 in data set [1] and in data set [2] was below 0.01 µM each time.
As for `N#CC[C@H]1CN(c2nc(OC[C@@]34CCCN3C[C@H](F)C4)nc3c(F)c(-c4cccc(Cl)c4C4CC4)ncc23)CCN1C(=O)/C=C/CN1CCOCC1` [Compound 243], the 50% inhibitory concentration (IC50) in data set [1] and in data set [2] was below 0.01 µM each time.
With `N#CC[C@H]1CN(c2nc(OC[C@@]34CCCN3C[C@H](F)C4)nc3c(F)c(-c4cccc(Cl)c4C4CC4)ncc23)CCN1C(=O)/C=C/CN1CC[C@H](F)C1` [Compound 283], the IC50 in data set [1] and in data set [2] was below 0.01 µM in each case.
For the compound `CN(C/C=C/C(=O)N1CCN(c2nc(OCC34CCCN3CCC4)nc3c2CCN(c2cccc4cccc(Cl)c24)C3)C[C@@H]1CC#N)CC1COC1` [Compound 318], the IC50 in data set [1] and in data set [2] was below 0.01 µM each time.
As for `Cc1noc(/C=C/C(=O)N2CCN(c3nc(OC[C@@]45CCCN4C[C@H](F)C5)nc4c3CCN(c3cccc5ccc(F)c(Cl)c35)C4)C[C@@H]2CC#N)n1` [Example 3, 2-((S)-4-(7-(8-chloro-7-fluoronaphthalen-1-yl)-2-(((2R,7aS)-2-fluorotetrahydro-1H-pyrrolizin-7a(5H)-yl)methoxy)-5,6,7,8-tetrahydropyrido[3,4-d]pyrimidin-4-yl)-1-((E)-3-(3-methyl-1,2,4-oxadiazol-5-yl)acryloyl)piperazin-2-yl)acetonitrile], the IC50 in data set [1] is 0.01 to 0.1 µM; in data set [2], below 0.01 µM.
Consider `CC(C)(O)c1noc(/C=C/C(=O)N2CCN(c3nc(OCC45CCCN4CCC5)nc4c3CCN(c3cccc5cccc(Cl)c35)C4)C[C@@H]2CC#N)n1` [Example 16, (S,E)-2-(4-(7-(8-chloronaphthalen-1-yl)-2-((hexahydro-1H-pyrrolizin-7a-yl)methoxy)-5,6,7,8-tetrahydropyrido[3,4-d]pyrimidin-4-yl)-1-(3-(3-(2-hydroxypropan-2-yl)-1,2,4-oxadiazol-5-yl)acryloyl)piperazin-2-yl)acetonitrile], for which the IC50 in data set [1] was in the range of 0.01 to 0.1 µM. For the same compound, the logD in data set [3] stood at 3.04. Moreover, the solubility kinetic at 2 h in data set [4] was found to be 0.0731 mg/mL (≈ 99 µM).
